According to patent US11344625B2, “Compositions having antifungal activity” (WAKO FILTER TECHNOLOGY Co., LTD., priority 2015, dated 2022):
Values after ≈ are worked out from the molar mass of the structure shown. Read-outs that look alike come from different tables or passages of the source.

Tests used:
[1] = tested on: Trichophyton mentagrophytes TIMM 2789; experiment: In vitro inhibition test for Trichophyton (pour-plate, agar); assay type: cell-based; conditions: cultured at 28° C.
Method: A clinical isolate, Trichophyton mentagrophytes TIMM 2789, held by the Teikyo University Medical Mycology Research Center was used as the Trichophyton. For the preculture process, this Trichophyton was extracted from low-temperature silica stock one week prior to the day of the test, and was cultured on a Sabouraud Dextrose Agar culture plate containing 50 μg/ml of chloramphenicol and 500 μg/ml of cycloheximide (such that these components were diluted to 1/10). This culturing was performed for one week at 28° C., and the bacteria were collected and used on the day of the test. The setting of the Trichophyton bacterial count was achieved by transferring the collected bacteria using a pour-plate method to a culture medium such that the final concentration was 10^3 cells/ml. In addition, the respective test samples were also transferred to a culture medium using a pour-plate method such that the final concentrations thereof were set to those shown in the table below. […] In the preparation, 1 ml of each test sample solution and 24 ml of RPMI-1640 culture medium were blended together, and prepared in a sterilized plastic Petri dish. The Trichophyton inoculation culture medium that was prepared in this manner was then cultured at 28° C. for four days, and the growth inhibitory effect of the mycelia after this culturing was observed and the properties thereof determined. The determinations were made both visually, and in the case of turbidity being present, by comparing the growth condition of the mycelia with a control (containing no test sample additives) via photomicrograph (at magnification ×40).
Results for the negativity and positivity of the bacteria obtained from each test sample are shown below in Table 6. Note that if the mycelial growth rate of the control is taken as 100%, then when the mycelial growth rate in the test sample is 0%, this is determined to be [−], while if the mycelial growth rate in the test sample is 1 to 20%, this is determined to be [+], and if the mycelial growth rate in the test sample is 21 to 90%, this is determined to be […]. Note that FIG. 15 and FIG. 16 are photographs showing states 7 days after colony formation of the Trichophyton in each test sample.

[2] = tested on: Trichophyton mentagrophytes TIMM 2789; experiment: as above; assay type: cell-based; conditions: for MIC: Trichophyton mentagrophytes, read-out: MIC (minimum inhibitory concentration)
[3] = tested on: Candida albicans TIMM 1768; experiment: Inhibition test for Candida mycelial growth (crystal violet, checkerboard for combinations); assay type: cell-based; conditions: for IC (at a 70% growth inhibitory concentration): checkerboard; for IC 70 (70% growth inhibitory concentration): alone, Candida mycelial growth; for improvement effect in the anticandidal activity against Candida mycelial growth: test reagent alone, concentration series
Method: A clinical isolate, Candida albicans TIMM 1768, held by the Teikyo University Medical Mycology Research Center was used as the Candida. This Candida was cultured for 20 hours at 37° C. on a Sabouraud Dextrose Agar culture plate. The multiplied bacterial cells were recovered, and then suspended in sterilized water so as to form Candida solutions whose bacterial count was adjusted to 5×10^3 cells/ml. Each sample was dissolved in advance in DMSO (dimethyl sulfoxide) so as to match the final concentration, and was then added to a 1/3 RPMI-1640 culture medium containing 2% calf serum so as to form sample solutions. 100 μL of both the sample solution (having a DSMO concentration in the culture medium of 0.5%) and the Candida bacterial solution were then placed respectively in each well of a 96-hole microplate (manufactured by Sumitomo Bakelite, Tokyo), and these were then cultured for three hours at 37° C. in a 5% carbon dioxide gas atmosphere. After three hours, the solutions in each well were discarded and the wells were cleaned. Subsequently, 200 μL of 1/3 RPMI-1640 was newly added to each well, and culturing was performed for 16 hours at 37° C. in a presence of 5% carbon dioxide gas. Once this culturing had ended, the solutions in each well were removed by suction, and the wells were washed using physiological saline. 200 μL of 70% ethanol was then injected so as to sterilize the Candida. After the ethanol had been removed, and the wells washed with tap water, 100 μL of a dye solution (i.e., a 0.1 M phosphate buffer containing 0.01% of dissolved crystal violet solution) was injected and left standing for 15 minutes. As a result, the Candida mycelia adhering to the surface of the wells were dyed.
After the wells were then washed with tap water so as to remove excess dye solution, 150 μL of […] containing 0.04 NHCL, and 50 μL of a 0.25% sodium dodecyl sulfate solution were then injected so as to free the coloring adhering to the bacterial cells. After the coloring had been freed, the plate was set in a multiscan photometer (i.e., a Multiskan FC, manufactured by Thermo Fisher Scientific Inc.), and the OD at 620 nm was measured in each well. The growth inhibition rate was then determined using the following formula. Growth inhibition rate (%)=(1−sample OD/subject OD)×100
The anticandidal activity synergistic effect provided by the combined use was evaluated using a checkerboard method. […] The experiment conditions and the measurement method and the like were the same as those employed for the mycelial growth test (i.e., Example 1).
The anticandidal activity synergistic effect obtained from a combined use was evaluated using a checkerboard method in the same way as in Example 2. […] The experiment conditions and the measurement method and the like were the same as those employed for the mycelial growth test (i.e., Example 1).
The anticandidal activity effect obtained from each test reagent was evaluated using a checkerboard method in the same way as in Example 2. […] The experiment conditions and the measurement method and the like were the same as those employed for the mycelial growth test (i.e., Example 1).

[4] = tested on: Malassezia pachydermatis; experiment: Anti-Malassezia fungal activity, agar dilution method; assay type: cell-based; conditions: for Determination (mycelial growth rate taking control as 100): 7 days at 32° C.
Method: 100 μL lots of the test bacterial solution adjusted to McFarland 1.0 were coated over this Agar plate and were cultured for seven days at 32° C. Thereafter, the growth rate of the bacteria thereon were compared with a control (i.e., an MLNA culture medium containing no test additives) and their properties were determined. […] Note that if the mycelial growth rate of the control is taken as 100%, then when the mycelial growth rate in the test sample is 0%, this is determined to be [−], while if the mycelial growth rate in the test sample is 1 to 20%, this is determined to be [+], and if the mycelial growth rate in the test sample is 21 to 90%, this is determined to be […].

[5] = tested on: Candida albicans TIMM 1768; experiment: Oral candidiasis model in mice; assay type: in vivo, ICR strain mice; conditions: day 2
Method: Using ICR strain mice (males, 6 weeks old, Charles River Laboratories, Japan) as the experimental animals, these mice were subcutaneously injected with 100 mg/kg of prednisolone as an immunosuppressant on the day prior to the candidiasis inoculation. Additionally, tap water containing 15 mg/ml of chlortetracycline hydrochloride was made freely available starting from that same day. On the day of the innoculation, in order to keep the mice in a resting state, 14.4 mg/kg of chlorpromazine hydrochloride (manufactured by Wako Pure Chemical Industries, Ltd.) was intramuscularly administered in advance. The bacterial strain and culturing method that were used were the same as in the Examples as far as the previous paragraph, and the multiplied bacterial cells were suspended in an RPMI-1640 culture medium containing 2% calf serum so as to form a bacterial solution whose bacterial count was adjusted to 2×10^8 cells/ml. […] Two days after the inoculation the mouse was euthanized, and the tongue symptom score was evaluated in accordance with a reference. […] A fixed quantity of this was then coated onto a Candida GS agar plate, and was cultured at 37° C. for 20 hours. The number of colonies appearing after this time was then measured. The number of viable Candida bacteria CFU (colony forming units) recovered from the relevant individuals was then calculated from the number of colonies.

[6] = LYZOX used in combination with terpinen-4-ol
[7] = used in combination with decanoic acid
[8] = used in combination with terpinen-4-ol

| Compound | Determination (mycelial growth rate taking control as 100) ([1]; 1 mg/ml) | IC 70 (70% growth inhibitory concentration) [3] [µg/mL] | Determination (mycelial growth rate taking control as 100) ([4]; 0.1 mg/ml) | Determination (mycelial growth rate taking control as 100) ([4]; 1 mg/ml) | IC (at a 70% growth inhibitory concentration) [3, 6] [µg/mL] | Determination (mycelial growth rate taking control as 100) ([1]; 2.5 mg/ml) | Determination (mycelial growth rate taking control as 100) ([1]; 5 mg/ml) | improvement effect in the anticandidal activity against Candida mycelial growth [3] | improvement effect in the anticandidal activity from combined usage against Candida mycelial growth [3, 7] | improvement effect in the anticandidal activity from combined usage against Candida mycelial growth [3, 8] | Determination (mycelial growth rate taking control as 100) ([4]; 0.05 mg/ml) | Determination (mycelial growth rate taking control as 100) ([4]; 0.5 mg/ml) | further results |
| --- | --- | --- | --- | --- | --- | --- | --- | --- | --- | --- | --- | --- | --- |
| CCCCCCCCCC(=O)O [Decanoic acid, decanoic acid] | ++ (21 to 90%) | 480 | +++ (91 to 100%) | +++ (91 to 100%) | – | – | – | – | – | – | – | – | Determination (mycelial growth rate taking control as 100) ([1]; 0.8 mg/ml): +++ (91 to 100%); Determination (mycelial growth rate taking control as 100) ([1]; 0.9 mg/ml): +++ (91 to 100%); Determination (mycelial growth rate taking control as 100) ([1]; 1.5 mg/ml): − (0%); MIC ([2]; TIMM2789, LYZOX and decanoic acid used in combination): 200 µg/mL; MIC ([2]; TIMM2789, used alone): 1500 µg/mL (≈ 8.71 mM); IC (at a 70% growth inhibitory concentration) ([3]; LYZOX used in combination with capric acid (decanoic acid)): 25 µg/mL; Determination (mycelial growth rate taking control as 100) ([4]; 0.2 mg/ml): +++ (91 to 100%); Determination (mycelial growth rate taking control as 100) ([4]; 2 mg/ml): + (1 to 20%) |
| CC1=CCC(O)(C(C)C)CC1 (stereo not shown) [Terpinen-4-ol, terpinen-4-ol] | – | 1900 | – | – | 280 | – | – | – | – | – | – | – | viable bacteria count recovered from the oral cavity ([5]; T 10 mg/ml on tongue dorsum 3, 24, 27 h after inoculation): reduction in the viable bacterial count |
| LYZOX: complex formed by bonding lysozyme to chitosan (14000 Da) via a Maillard reaction; LYZOX is a registered trademark | +++ (91 to 100%) | 193 | ++ (21 to 90%) | − (0%) | 60 | ++ (21 to 90%) | ++ (21 to 90%) | improvement effect in the anticandidal activity against Candida mycelial growth was visible | remarkable improvement effect | remarkable improvement effect | +++ (91 to 100%) | − (0%) | tongue symptom score ([5]; L 20 mg/ml on tongue dorsum 3, 24, 27 h after inoculation): remarkable improvement effect; Determination (mycelial growth rate taking control as 100) ([1]; 10 mg/ml): − (0%); MIC (minimum inhibitory concentration) ([2]; LYZOX and decanoic acid used in combination): 100 µg/mL; MIC (minimum inhibitory concentration) ([2]; used alone): 10000 µg/mL; Candida growth rate ([3]; 250 μg/ml): 0.9%; anti-Malassezia fungal activity against Malassezia fungi ([4]; summary of agar dilution and disk experiments): exhibited anti-Malassezia fungal activity |
| Lysozyme: simple lysozyme, unbonded component of the complex | – | – | – | – | – | +++ (91 to 100%) | ++ (21 to 90%) | no improvement effect | no improvement effect | no improvement effect | +++ (91 to 100%) | +++ (91 to 100%) | – |
